Test results as given in PMC5418359, “Topical Ophthalmic Formulation of Trichostatin A and SurR9-C84A for Quick Recovery Post-alkali Burn of Corneal Haze” (Frontiers in Pharmacology, 2017).

How the values were obtained:
cornea = assay: Mean opacity and mean permeability measurements, rat alkali burn model; type: in vivo; conditions: for Mean in vitro score / Mean opacity measurement: 1 M NaOH 1 min, topical treatment 40 min; for Predicted irritation potential: rat, in vivo
Protocol: The mean in vivo scores was determined using the mean opacity measurements. The rat eyes were excised carefully and carried to the laboratory in HBSS supplemented with penicillin/streptomycin. The measurement of mean opacity was carried out using an opacitometer which measures the transmission of light through the center of each mounted cornea. The mean permeability score was determined by adding a fluorescent (rhodamine solution) on the anterior side of the holder and the corneas were incubated in a horizontal position for 90 min at 32°C. The medium in the posterior chamber was removed and added to 96 well plates and the OD at 490 nm was read. The readings obtained at OD490 were used to determine the permeability of each treatment with respect to the change in the untreated corneas.

[1] = system: conjunctival layer and corneal matrix; assay: H&E histology of corneal segments, rat alkali burn model; type: in vivo; conditions: 1 M NaOH 1 min, topical treatment 40 min
Protocol: After the completion of the study, all tissues that required to be examined (eyes, brain, kidneys, liver, spleen, heart and lungs) were isolated. The cornea was carefully separated from the eye without damaging it and washed using phosphate buffer saline (PBS). Tissues were fixed using 4% paraformaldehyde (PF) overnight at 4°C and then washed in PBS. The tissue segments were dehydrated in graded ethanol, embedded in paraffin and 5–7 μm thick sections were cut using a microtome. Sections were collected on poly-lysine coated slides using the Leica cryostat and were fixed immediately in ice-cold acetone. All the sections were stained for haematoxylin–eosin (H&E) for critical analysis.

corneal lysate = assay: Multianalyte ELISA of inflammatory cytokines in corneal lysate; type: in vivo, rat
Protocol: The cytokine profiling was performed using the Rat Inflammatory Cytokines & Chemokines Multi-Analyte ELISArray Kit (QIAGEN, USA). Briefly, serial dilutions of the Antigen Standard and the experimental samples were prepared. 50 μL of Assay Buffer was added to each well of the 8-well ELISA strips. Fifty microliters samples and/or standards were added to the appropriate wells of the ELISA strips and incubated for 2 h at room temperature. The ELISA strips were further washed using 350 μL 1 × Washing Buffer thrice. Hundred microliters of Detection Antibody solution was added to the ELISA strips and incubated for 1 h at room temperature. ELISA wells were washed as mentioned above. Hundred microliters of the Avidin–HRP solution was added to all wells and incubated for 30 min at room temperature. ELISA wells were washed as mentioned above. Hundred microliters of Development Solution was added to each well and incubated for 15 min at room temperature in the dark. Hundred microliters of Stop Solution was added to each well. The color changed from blue to yellow. The absorbance at 450 nm was measured within 30 min of stopping the reaction. The estimation of pg/mL of cytokines was performed using the values obtained from antigen standards and a graph was plotted for the cytokine expression with the effect of treatments.

Blood analysis = type: in vivo; parameters: HCT / MCH / WBC / RBC / HGB / MCHC: unit not given here; conditions: rat blood; for MCV: in fL (unit assumed)
Protocol: The analysis of blood samples was performed directly using the ABX Micros ES 60 (Horiba Medicals). The parameters analyzed included the number of red blood cells (RBC’s), white blood cells (WBC’s), platelets and hemoglobin content. Briefly, 20 μL of the blood sample was acquired in the instrument and the readings were recorded.

rat corneal tissues = conditions: for clathrin (conjunctival layer) and claudin (corneal layer) expressions, immunofluorescence: post-NaOH insult
[2] = system: rat eyes post-alkali burn
[3] = system: expression of survivin, TGF-beta-1, alpha-SMA and collagen IV in alkali burnt cornea; assay: Ex vivo RT-PCR dose ranging in alkali burnt rat eyes; conditions: 1 M NaOH 1 min, treatment 40 min
Protocol: This procedure was carried out using a previously published protocol ([Lin et al., 2016]). Rat eyes were harvested from humanely killed rats and washed with HBSS. Rat eyes were further incubated with 1 M NaOH for 1 min and then treated with TSA ([…]), SurR9-C84A (0.5, 1.2, and 2.5 mg/kg), pSur/As-Sur ([…]) and empty plasmid (200, 400, and 800 μg/kg) for 40 min. Untreated eyes were maintained as controls. After treatment period, eyes were washed with PBS and total RNA was extracted using the TRIzol® reagent (cat# 15596-026, Thermo Fisher Scientific, Waltham, MA, USA), and complementary DNA (cDNA) was synthesized from RNA using the RevertAid H Minus First Strand cDNA Synthesis Kit (cat# K1631, Thermo Fisher Scientific). Expression of survivin, TGF-beta-1, alpha-SMA and collagen IV was determined by polymerase chain reaction (PCR).

| Molecule | Mean in vitro score (cornea) | Mean opacity measurement (cornea) | Predicted irritation potential (cornea) | corneal tissue integrity (conjunctival layer, corneal matrix), H&E [1] | IL-1 beta expression, ELISA (corneal lysate) | IL-4 expression, ELISA (corneal lysate) | MCHC (Blood analysis) | RBC (Blood analysis) | WBC (Blood analysis) | MCV (Blood analysis) | alpha-SMA expression, immunofluorescence (rat corneal tissues; confocal microscopy) | survivin expression, immunofluorescence (rat corneal tissues; confocal microscopy) | clathrin (conjunctival layer) and claudin (corneal layer) expressions, immunofluorescence (rat corneal tissues) | Collagen type IV gene expression, qRT-PCR [2] | IL-1 beta gene expression, qRT-PCR [2] | MMP-2 gene expression, qRT-PCR [2] | TGF-beta-1 gene expression, qRT-PCR [2] | also measured |
| --- | --- | --- | --- | --- | --- | --- | --- | --- | --- | --- | --- | --- | --- | --- | --- | --- | --- | --- |
| [Na+].[OH-] [NaOH] | 10.2 ± 0.5^∗∗∗ | 2.5 ± 0.5^∗∗ | Moderate irritation | damage of the conjunctival layer and the corneal matrix | increase | decrease | 37.51 ± 4.79 | 6.53 ± 2.89 | 3.4 ± 1.19 | 62.5 ± 8.01 | substantially enhanced | slightly increased | substantially lowered | increase | decreased | increase | increase | GMCSF expression, ELISA (corneal lysate): enhanced; IFN-gamma expression, ELISA (corneal lysate): upregulated; IL-6 expression, ELISA (corneal lysate): enhanced; IL-10 expression, ELISA (corneal lysate): significant increase; IL-12 expression, ELISA (corneal lysate): decreased; IL-13 expression, ELISA (corneal lysate): enhanced; Rantes expression, ELISA (corneal lysate): upregulated; TNF-alpha expression, ELISA (corneal lysate): enhanced; collagen type IV expression, immunofluorescence (rat corneal tissues; confocal microscopy): downregulated; increase in alpha-SMA expression, western blot (rat corneal lysates; NaOH insult): 2.7 fold; decrease/downregulation of collagen type IV, western blot (rat corneal lysates; rat, in vivo, iv): 1.1 fold; IL-6 gene expression, qRT-PCR [2]: increased; MMP-9 gene expression, qRT-PCR [2]: lowered; TNF-alpha gene expression, qRT-PCR [2]: increased; alpha-integrin 5 gene expression, qRT-PCR [2]: lowered |
| SurR9-C84A: dominant negative survivin protein (survivin mutant) | 0.0^∗ | 0.0^∗ | No irritation | recovery of the conjunctival layer | further increase | increase | 36.61 ± 1.57 | 8.35 ± 0.99 | 1.3 ± 3.18 | 55.66 ± 1.86 | substantial decrease | increase | more effective than TSA alone | efficiently downregulated | increase | downregulating | further increase | most effective dosage in inhibiting expression of survivin, alpha-SMA, TGF-beta-1 and collagen IV [3]: 1.2 mg/kg; IL-1 alpha expression, ELISA (corneal lysate): significantly increase; IL-2 expression, ELISA (corneal lysate): significantly increased; HCT (Blood analysis): increased the HCT count to normal range; HGB (Blood analysis): 17.1 ± 1.11; MCH (Blood analysis): reduced to normal range; PLT (Blood analysis): increased; HCT (Blood analysis; listed as NaOH–SurR9-C84A): 46.85 ± 4.14; MCH (Blood analysis; listed as NaOH–SurR9-C84A): 20.36 ± 1.42; PLT (Blood analysis; listed as NaOH–SurR9-C84A): 547.16 ± 130; downregulation of alpha-SMA, western blot (rat corneal lysates; post-NaOH insult): 6.75 fold; enhancement of Fibronectin-1 expression, western blot (rat corneal lysates; post-NaOH insult): 1.97 fold; increase in TGF-beta-1 expression, western blot (rat corneal lysates; post-NaOH insult): 2.4 fold; increase in survivin expression, western blot (rat corneal lysates; post-NaOH insult): 7.7 fold; Fibronectin-1 gene expression, qRT-PCR [2]: significantly enhanced; alpha-SMA gene expression, qRT-PCR [2]: significant decrease; survivin gene expression, qRT-PCR [2]: significantly increased |
